# Read-outs that look alike come from different tables or passages of the source.
# Columns and labels:
# MDA-MB-468 = assay: NCI-60 anticancer screen (SRB; single dose and five doses); format: cell-based, human
# In short: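 Readout was sulforhodamine B staining, read spectrophotometrically as percent growth against untreated controls. This followed a 48 h exposure to one 10μM dose across roughly 60 human tumor lines of the NCI screen.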
# [1] = tested on: 60 human tumor cell lines panel; assay: NCI-60 anticancer screen, whole panel (means and ranges over the cell lines); format: cell-based; conditions: for activity at 10 µM: Homo sapiens, 48 h, dose of 10 μM
# SNB-19 = assay: cells; conditions: Homo sapiens
# MOLT-4 = assay: NCI-60 anticancer screen (SRB; single dose and five doses); conditions: Homo sapiens
# RPMI-8226 = assay: as above; conditions: Homo sapiens
# A549/ATCC = assay: as above; conditions: Homo sapiens
# HOP-62 = assay: as above; conditions: Homo sapiens
# HOP-92 = assay: as above; conditions: Homo sapiens
# NCI-H226 = assay: as above; conditions: Homo sapiens
# NCI-H322M = assay: as above; conditions: Homo sapiens
# NCI-H460 = assay: as above; conditions: Homo sapiens
# NCI-H522 = assay: as above; conditions: Homo sapiens
# COLO 205 = assay: as above; conditions: Homo sapiens
# HCC-2998 = assay: as above
# HCT-116 = assay: as above; conditions: Homo sapiens
# MALME-3M = assay: as above; conditions: Homo sapiens
# SK-MEL-28 = assay: as above; conditions: Homo sapiens
# OVCAR-8 = assay: as above; conditions: Homo sapiens
# NCI/ADR-RES = assay: as above; conditions: Homo sapiens
# SK-OV-3 = assay: as above; conditions: Homo sapiens
# A498 = assay: as above; conditions: Homo sapiens
# ACHN = assay: as above; conditions: Homo sapiens
# RXF 393 = assay: as above; conditions: Homo sapiens
# PC-3 = assay: as above; conditions: Homo sapiens
# BT-549 = assay: as above; conditions: Homo sapiens
# [2] = five doses, mean graph midpoint over all cell lines
# [3] = 48 h, read-out: Growth Percentage
structure (smiles),measurement,setting,value
"Cc1[nH]c(=S)sc1C(=O)/C=C/c1ccc([N+](=O)[O-])cc1 [2i, (E)-1-(4-Methyl-2-Thioxo-2,3-Dihydrothiazol-5-yl)-3-(4-Nitrophenyl)Prop-2-En-1-One]",activity at 10 µM,"MDA-MB-468; Homo sapiens, 48 h, MDA-MB-468, dose of 10 μM, read-out: Growth Percentage",-18.9%
same,GI50,"MDA-MB-468; Homo sapiens, MDA-MB-468, Breast Cancer, five dose",2.2 µM
same,CC50,"MDA-MB-468; Homo sapiens, MDA-MB-468, Breast Cancer, five dose, read-out: LC50 (the source's name)",31.4 µM
same,TGI,"MDA-MB-468; MDA-MB-468, Breast Cancer, five dose",8 µM
same,activity at 10 µM,"[1]; mean over the tested cell lines, read-out: Mean growth percentage",25.2%
same,activity at 10 µM,"[1]; range over the cell lines, read-out: growth percentages against most of the tested cells (lowest to highest)",-86.2 to 108%
same,Log10GI50 _MID,[1]; [2],-5.13 Molar
same,Log10LC50 _MID,[1]; [2],-4.25 Molar
same,Log10TGI _MID,[1]; [2],-4.62 Molar
same,GI50,SNB-19; SNB-19,5.42 µM
same,activity at 10 µM,"SNB-19; SNB-19, 48 h, read-out: Growth Percentage",41.2%
same,CC50,"SNB-19; SNB-19, read-out: LC50",43.2 µM
same,IC (TGI),"SNB-19; SNB-19, read-out: TGI",18.3 µM
same,GI50,MOLT-4; MOLT-4,3.79 µM
same,activity at 10 µM,"MOLT-4; MOLT-4, 48 h, read-out: Growth Percentage",14.2%
same,CC50,"MOLT-4; MOLT-4, read-out: LC50",> 100 µM
same,IC (TGI),"MOLT-4; MOLT-4, read-out: TGI",> 100 µM
same,GI50,RPMI-8226; RPMI-8226,3.55 µM
same,activity at 10 µM,"RPMI-8226; RPMI-8226, 48 h, read-out: Growth Percentage",-7.9%
same,CC50,"RPMI-8226; RPMI-8226, read-out: LC50",> 100 µM
same,IC (TGI),"RPMI-8226; RPMI-8226, read-out: TGI",> 100 µM
same,GI50,A549/ATCC; A549,17 µM
same,activity at 10 µM,"A549/ATCC; A549, 48 h, read-out: Growth Percentage",75.7%
same,CC50,"A549/ATCC; A549, read-out: LC50",69 µM
same,IC (TGI),"A549/ATCC; A549, read-out: TGI",34.2 µM
same,GI50,HOP-62; HOP-62,6.43 µM
same,activity at 10 µM,"HOP-62; HOP-62, 48 h, read-out: Growth Percentage",21.6%
same,CC50,"HOP-62; HOP-62, read-out: LC50",67.7 µM
same,IC (TGI),"HOP-62; HOP-62, read-out: TGI",23.2 µM
same,GI50,HOP-92; HOP-92,12.2 µM
same,activity at 10 µM,"HOP-92; HOP-92, 48 h, read-out: Growth Percentage",57.6%
same,CC50,"HOP-92; HOP-92, read-out: LC50",64.4 µM
same,IC (TGI),"HOP-92; HOP-92, read-out: TGI",28 µM
same,GI50,NCI-H226; NCI-H226,15.6 µM
same,activity at 10 µM,"NCI-H226; NCI-H226, 48 h, read-out: Growth Percentage",91.4%
same,CC50,"NCI-H226; NCI-H226, read-out: LC50",> 100 µM
same,IC (TGI),"NCI-H226; NCI-H226, read-out: TGI",42.1 µM
same,GI50,NCI-H322M,11 µM
same,activity at 10 µM,NCI-H322M; [3],50.7%
same,CC50,NCI-H322M; read-out: LC50,54.6 µM
same,IC (TGI),NCI-H322M; read-out: TGI,24.5 µM
same,GI50,NCI-H460; NCI-H460,15.9 µM
same,activity at 10 µM,"NCI-H460; NCI-H460, 48 h, read-out: Growth Percentage",11.3%
same,CC50,"NCI-H460; NCI-H460, read-out: LC50",72.5 µM
same,IC (TGI),"NCI-H460; NCI-H460, read-out: TGI",34 µM
same,GI50,NCI-H522; NCI-H522,9.37 µM
same,activity at 10 µM,"NCI-H522; NCI-H522, 48 h, read-out: Growth Percentage",33%
same,CC50,"NCI-H522; NCI-H522, read-out: LC50",51.5 µM
same,IC (TGI),"NCI-H522; NCI-H522, read-out: TGI",22.5 µM
same,GI50,COLO 205; COLO 205,15.9 µM
same,activity at 10 µM,"COLO 205; COLO 205, 48 h, read-out: Growth Percentage",91.5%
same,CC50,"COLO 205; COLO 205, read-out: LC50",> 100 µM
same,IC (TGI),"COLO 205; COLO 205, read-out: TGI",41.1 µM
same,GI50,"HCC-2998; Homo sapiens, HCC 2998",9.37 µM
same,activity at 10 µM,"HCC-2998; Homo sapiens, HCC 2998, 48 h, read-out: Growth Percentage",-11.9%
same,CC50,"HCC-2998; Homo sapiens, HCC 2998, read-out: LC50",47 µM
same,TGI,"HCC-2998; five-dose, Colon Cancer HCC-2998",21.5 µM
same,GI50,HCT-116; HCT-116,2.78 µM
same,activity at 10 µM,"HCT-116; HCT-116, 48 h, read-out: Growth Percentage",-47.8%
same,CC50,"HCT-116; HCT-116, read-out: LC50",44.3 µM
same,IC (TGI),"HCT-116; HCT-116, read-out: TGI",7.89 µM
same,GI50,MALME-3M,13.7 µM
same,activity at 10 µM,MALME-3M; [3],75.2%
same,CC50,MALME-3M; read-out: LC50,70.8 µM
same,IC (TGI),MALME-3M; read-out: TGI,31.1 µM
same,GI50,SK-MEL-28; SK-MEL-28,13.7 µM
same,activity at 10 µM,"SK-MEL-28; SK-MEL-28, 48 h, read-out: Growth Percentage",23.9%
same,CC50,"SK-MEL-28; SK-MEL-28, read-out: LC50",52.5 µM
same,IC (TGI),"SK-MEL-28; SK-MEL-28, read-out: TGI",26.8 µM
same,GI50,OVCAR-8; OVCAR-8,7.73 µM
same,activity at 10 µM,"OVCAR-8; OVCAR-8, 48 h, read-out: Growth Percentage",7.06%
same,CC50,"OVCAR-8; OVCAR-8, read-out: LC50",65.2 µM
same,IC (TGI),"OVCAR-8; OVCAR-8, read-out: TGI",23.9 µM
same,GI50,NCI/ADR-RES,14.9 µM
same,activity at 10 µM,NCI/ADR-RES; [3],-4.45%
same,CC50,NCI/ADR-RES; read-out: LC50,82.8 µM
same,IC (TGI),NCI/ADR-RES; read-out: TGI,35.2 µM
same,GI50,SK-OV-3; SK-OV-3,18.6 µM
same,activity at 10 µM,"SK-OV-3; SK-OV-3, 48 h, read-out: Growth Percentage",108%
same,CC50,"SK-OV-3; SK-OV-3, read-out: LC50",76.9 µM
same,IC (TGI),"SK-OV-3; SK-OV-3, read-out: TGI",37.8 µM
same,GI50,A498; A498,15.5 µM
same,activity at 10 µM,"A498; A498, 48 h, read-out: Growth Percentage, A498, dose of 10 μM",105%
same,CC50,"A498; A498, read-out: LC50",55.3 µM
same,IC (TGI),"A498; A498, read-out: TGI",29.3 µM
same,GI50,ACHN,11.3 µM
same,activity at 10 µM,ACHN; [3],3.88%
same,CC50,ACHN; read-out: LC50,48.4 µM
same,IC (TGI),ACHN; read-out: TGI,23.3 µM
same,GI50,RXF 393; RXF 393,4.88 µM
same,activity at 10 µM,"RXF 393; RXF 393, 48 h, read-out: Growth Percentage",-4.35%
same,CC50,"RXF 393; RXF 393, read-out: LC50",44.8 µM
same,IC (TGI),"RXF 393; RXF 393, read-out: TGI",18.6 µM
same,GI50,PC-3; PC-3,10.3 µM
same,activity at 10 µM,"PC-3; PC-3, 48 h, read-out: Growth Percentage",51.3%
same,CC50,"PC-3; PC-3, read-out: LC50",> 100 µM
same,IC (TGI),"PC-3; PC-3, read-out: TGI",37.3 µM
same,GI50,BT-549; BT-549,5.04 µM
same,activity at 10 µM,"BT-549; BT-549, 48 h, read-out: Growth Percentage",20.1%
same,IC (TGI),"BT-549; BT-549, read-out: TGI",19.3 µM

# — PMC11435058, “Synthesis of New Thiazole-Privileged Chalcones as Tubulin Polymerization Inhibitors with Potential Anticancer Activities” (Pharmaceuticals, 2024)
